Data from patent US20020106347A1, “Cytokines and their use in treatment and/or prophylaxis of breast cancer” (priority 1995, published 2002).
Entries after “also recorded” stand apart in the source; their conditions may differ.

Key:
MDA-MB-231 cells = experiment: Proliferation of MDA-MB-231 cells in culture, viable cell count; type: cell-based, human
Description: FIG. 19 is a graphical representation showing MDA-MB-231 cells after 7 days in suspension culture. 10^4MDA-MB-231 cells were cultured in 500 μl RPMI/10% (v/v) BCS with the indicated growth factor. After 7 days viable cells were counted using a hemacytometer. Results are from 8 experiments, each performed in triplicate.
(§1) Proliferation of the cell lines was measured in monolayer culture in 24 well Costar cluster plates. Cells were plated at an initial density of 10 000 cells/ml and cultured in 500 μl RPMI-1640 supplemented with 10% (v/v) (v/v) BCS and with each growth factor as indicated (LIF, 1000 U/ml; IL-6, 100 ng/ml; OSM, 10 ng/ml; CNTF, 10 ng/ml; IL-11, 100 ng/ml). These concentrations are maximally active in other systems (Nandurkar et al., 1996; Hilton et al., 1994; Zhang et al., 1994; Tanigawa et al., 1995). After 7 or 10 days at 37° C. in a fully humidified atmosphere containing 10% (v/v) CO2 in air, cells were trypsinised and counted using a haemocytometer and an inverted microscope. Cell viability was assessed using eosin exclusion. Results were expressed as a percentage of the corresponding untreated control value for that experiment.

MCF-7 cell line = experiment: Receptor binding of radioiodinated ligand to MCF-7 cells, Scatchard analysis; set-up: species or system human; settings: for Kd: MCF-7, Scatchard analysis, read-out: dissociation constant; for specific binding(cpm)/10^6 cells: MCF-7M, 125I-ligand, room temperature 60 min
Description: (§2) FIG. 20 is a graphical representation showing Scatchard analyses of the saturation isotherms of LIF and OSM binding to breast cancer cell lines. Cells were incubated with various concentrations of labelled or unlabelled ligand in the presence or absence of a 10-100 fold excess of unlabelled ligand. After 18 hr on ice, bound and free ligand were separated by centrifugation through bovine calf serum. Bound and free ^125I-ligand was quantitated in a γ-counter and the data was depicted as a Scatchard transformation. Data was normalised for cell number and is shown as binding to 10^6 cells. A) Saturation isotherm of LIF binding to the MCF-7 cell line. […] B) Saturation isotherm of OSM binding to the MDA-MB-231 cell line.
(§3) Receptor binding assays were performed using radioiodinated LIF (^125I-LIF) and OSM (^125I-OSM). The radioiodination of LIF and OSM and binding assays were essentially performed as previously described (Hilton et al., 1991; Hilton and Nicola, 1992). Briefly, 50 μl aliquots containing 1×10^7 cells, suspended in RPMI-1640 medium containing 10% (v/v) BCS, were placed in Falcon tubes with 40 μl of the respective radioiodinated ligand at 1×10^5 cpm per 40 μl, with or without greater than a 40-fold excess of unlabelled ligand. Incubation was carried out at room temperature for 60 min and cells were resuspended and layered over 180 μl of (v/v) BCS. Cell associated and free radioiodinated ligand were separated by centrifugation. The pellet and supernatant were subsequently counted in a γ-counter. Specific binding was estimated by subtraction of non specific binding from binding with ^125I-ligand (total binding). Number of cell surface receptors and dissociation constant were calculated by Scatchard analysis.

HBL-100 cell line = experiment: Receptor binding of radioiodinated ligand to HBL-100 cells, Scatchard analysis; set-up: species or system human; settings: for specific binding(cpm)/10^6 cells: HBL-100, 125I-ligand, room temperature 60 min
Description: as §2, §3

MCF-7 cells [1] = experiment: Cell morphology after exposure to growth factor; type: cell-based, human; settings: MCF-7 / MCF-7M, 6-14 days in growth factor
Excerpt: FIG. 4 is a photographic representation showing morphology of growth factor stimulated MCF-7M cells. Following 1 week in suspension culture containing the various growth factors, MCF-7M cells were cytospun onto slides and subsequently stained with Giemsa.
FIG. 11 is a photographic representation showing cell morphology after exposure to OSM. MCF-7 cells from control cultures and appears of cells after 7 days in OSM. A) Control cells, 10× magnification. B) OSM treated cells, 10× magnification. C) OSM treated cells, 40× magnification. D) OSM treated cells, 100× magnification.
FIG. 15 is a photographic representation showing cell morphology after exposure to OSM. MCF-7 cells from control cultures (Panel A) and appearance of cells after culture for 14 days in OSM (10 ng/ml) (Panel B). MDA-MB-231 cells from control cultures (Panel C) and appearance of cells after culture for 7 days in OSM (Panel D).

MCF-7 cells [2] = experiment: Clonogenic assay in agar after monolayer culture; type: cell-based, human; settings: MCF-7, 7 days monolayer then 14 days agar
Description: FIG. 3 is a graphical representation showing clonogenicity of MCF-7M cells. Following suspension culture MCF-7M cell viability was measured by agar culture. Cells were plated in agar with the indicated concentrations of each of the growth factors. After 14 days culture colonies of cells were counted. Cell numbers reported here are the results of 3 experiments, each performed in triplicate, and are expressed according to the number of cells that went into suspension culture.
FIG. 17 is a graphical representation showing clonogenicity of MCF-7 cells after 1 week in suspension culture. Following suspension culture clonogenicity of MCF-7 cells was assayed in agar culture. Cells were plated in agar with the indicated growth factor and maintained at 37° C0 in a humidified incubator with 5% CO2 in air. After 14 days colonies of cells were counted. Results are from 9 experiments using IL-6, LIF and OSM, and 5 experiments using CNTF and IL-11. Each experiment was performed in triplicate, and colony numbers are expressed as a percentage of untreated controls.
Clonogenic potential of cells following monolayer culture was assessed in a semi-solid culture medium. Cells were cultured in triplicate in 35 mm Petri dishes containing 1 ml Iscove's modified Dulbecco's medium (IMDM) supplemented with 25% (v/v) (v/v) BCS, 0.3% (w/v) agar with final concentration of growth factor as outlined above, and with 200 cells per ml for control cultures Cultures were maintained at 37° C. in a humidified incubator with 5% (v/v) CO2 in air. After 14 days, colonies were enumerated using a dissecting microscope. A colony was defined as a clone of greater than 40 cells. All cultures were performed in triplicate.

BT-549 cells = experiment: Proliferation of BT-549 cells in culture, viable cell count; type: cell-based, human; settings: for effect on cell proliferation (in words): BT-549
Description: FIGS 5A and B are graphical representations of BT-549 cells in liquid culture. 10^4 BT-549 cells were cultured in 500 μl RPMI/10% (v/v) BCS containing the relevant concentration of each of the growth factors (OSM, IL-11 and IL-6). After 10 days, culture viable cells were counted using a hemacytometer. Cell numbers reported here in the two graphs are the results of 1 experiment performed in triplicate.
FIG. 18 is a graphical representation showing BT-549 cells after 10 days in suspension culture. 10^4BT-549 cells were cultured in 500 μl RPMI/10% (v/v) BCS with the indicated growth factor. After 10 days culture viable cells were counted using a hemacytometer. Results are from 6 experiments, each performed in triplicate.
as §1

T47D = experiment: Receptor binding of radioiodinated ligand to T-47D cells; set-up: species or system human; settings: 125I-ligand, room temperature 60 min
Description: as §3

Substance	inhibition of proliferation, up to (maximum observed) (MDA-MB-231 cells; MDA-MB-231, 7 days)	mean inhibition of proliferation (MDA-MB-231 cells; MDA-MB-231, 7 days, 8 experiments) [%]	Kd (MCF-7 cell line) [nM]	specific binding(cpm)/10^6 cells (MCF-7 cell line)	specific binding(cpm)/10^6 cells (HBL-100 cell line)	reduced binding of radiolabelled ligand compared with the other cell lines (HBL-100 cell line; HBL-100 vs T-47D, MDA-MB-231, MCF-7)	cell morphology (in words) (MCF-7 cells [1])	effect on colony formation / clonogenic potential (in words) (MCF-7 cells [2])	effect on cell proliferation (in words) (BT-549 cells)	mean growth inhibition (BT-549 cells; BT-549, 7 days) [%]	growth inhibition, up to (maximum observed) (BT-549 cells; BT-549, 10 days)	mean growth inhibition (BT-549 cells; BT-549, 10 days) [%]	specific binding(cpm)/10^6 cells (T47D)	effect on cellular proliferation (in words) (MDA-MB-231 cells; MDA-MB-231)	Kd (HBL-100 cell line; HBL-100, Scatchard analysis, read-out: dissociation constant) [nM]
oncostatin M [OSM]	up to 65%	54	2	1250 +/− 90 cpm	140 +/− 10 cpm	approximately 10 fold	more abundant cytoplasm and vacuolation; also recorded: more fibroblastic phenotype; also recorded: larger and more vacuolated than control cells	significant reduction of colony formation	inhibition of cell proliferation	60	up to 80%	60	1400 +/− 20 cpm	–	–
Leukemia Inhibitory Factor [LIF]	–	–	0.0146	350 +/− 100 cpm	590 +/− 30 cpm	–	appeared larger than the control cells	significant reduction of colony formation	failure of BT-549 cells and MDA-MB-231 cells to respond	–	–	–	380 +/− 10 cpm	did not result in significant effects on cellular proliferation	0.00749
